pIC50: −log10 of the molar value. Marks after values point to notes of the source that are not given here.

As usually defined, the pIC50 is −log10 of the IC50, conventionally taken in molar units. A higher pIC50 goes with a small IC50.

Sequence of TrkA (P04629 33-796): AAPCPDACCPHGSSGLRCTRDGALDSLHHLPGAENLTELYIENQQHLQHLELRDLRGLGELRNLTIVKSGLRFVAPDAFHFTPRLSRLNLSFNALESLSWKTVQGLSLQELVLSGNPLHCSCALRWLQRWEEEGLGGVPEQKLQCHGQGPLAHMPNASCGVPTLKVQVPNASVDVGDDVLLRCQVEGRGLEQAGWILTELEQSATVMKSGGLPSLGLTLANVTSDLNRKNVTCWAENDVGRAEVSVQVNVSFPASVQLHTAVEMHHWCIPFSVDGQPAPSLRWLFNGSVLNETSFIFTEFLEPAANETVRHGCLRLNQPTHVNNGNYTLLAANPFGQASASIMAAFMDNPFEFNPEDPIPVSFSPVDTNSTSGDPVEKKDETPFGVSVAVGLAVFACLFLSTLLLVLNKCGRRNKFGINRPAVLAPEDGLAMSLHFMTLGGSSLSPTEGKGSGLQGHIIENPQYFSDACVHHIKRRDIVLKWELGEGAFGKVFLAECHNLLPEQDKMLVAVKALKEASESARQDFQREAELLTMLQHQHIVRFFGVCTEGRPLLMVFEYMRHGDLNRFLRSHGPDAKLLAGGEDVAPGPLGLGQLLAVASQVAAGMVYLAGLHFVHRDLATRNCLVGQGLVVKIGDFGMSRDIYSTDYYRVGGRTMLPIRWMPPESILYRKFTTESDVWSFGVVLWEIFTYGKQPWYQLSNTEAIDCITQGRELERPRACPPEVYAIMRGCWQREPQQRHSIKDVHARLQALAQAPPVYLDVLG

One experiment concerns the target TrkA (Homo sapiens (Human), UniProt P04629). Briefly: TrkA kinase HTRF enzyme inhibition assay. The experiment is classed as biochemical. The settings on record: TrkA pre-incubated with 200 μM ATP. In a few lines: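 HTRF ratio read-out of biotin-peptide (125 nM) phosphorylation, 1 h reaction after TrkA (2-10 nM) auto-activation with ATP (200 μM) for 20 min and 10 min compound pre-incubation in 50 mM HEPES pH 7.4 with MgCl2/MnCl2. Percent inhibition from initial rates in duplicate, fitted to single-site equation for IC50.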
(TR-FRET usually uses a lanthanide donor and a delayed reading to cut background.)
On to `Cn1cc2cc(NC(=O)c3coc4c3C(=O)CC(C)(C)C4)ccc2n1` [Example 147, 6,6-dimethyl-N-(2-methyl-2H-indazol-5-yl)-4-oxo-4,5,6,7-tetrahydro-1-benzofuran-3-carboxamide], for which the pIC50 is 7.79. On the same count and under the same terms, the same measure for `CCOc1nc(N2CCN(C(C)=O)CC2)ccc1NC(=O)c1coc2c1C(=O)NC(C)(C)C2` [Example 128, N-[6-(4-acetylpiperazin-1-yl)-2-ethoxypyridin-3-yl]-6,6-dimethyl-4-oxo-4,5,6,7-tetrahydrofuro[3,2-c]pyridine-3-carboxamide]: 8.27. `COCCOc1nc(N2CCN(C(C)=O)CC2)ccc1NC(=O)c1coc2c1C(=O)NC(C)(C)C2` [Example 177, N-[6-(4-acetylpiperazin-1-yl)-2-(2-methoxyethoxyl)pyridin-3-yl]-6,6-dimethyl-4-oxo-4,5,6,7-tetrahydrofuro[3,2-c]pyridine-3-carboxamide] showed a pIC50 of 7.91. The same measure, in the same setting: the same measure for `CCOc1nc(N2CCN(C(C)=O)CC2)ccc1NC(=O)c1coc2c1C(=O)C(c1cc(F)ccc1F)CC2` (stereo not shown) [Example 185, N-[6-(4-acetylpiperazin-1-yl)-2-ethoxypyridin-3-yl]-5-(2,5-difluorophenyl)-4-oxo-4,5,6,7-tetrahydro-1-benzofuran-3-carboxamide]: 8.18; for `N#Cc1cccc(NC(=O)c2coc3c2C(=O)NCC3)c1` [Example 43, N-(3-cyanophenyl)-4-oxo-4,5,6,7-tetrahydrofuro[3,2-c]pyridine-3-carboxamide]: 5.25. `Cc1cc(NC(=O)c2coc3c2C(=O)N(C)CC3)no1` [Example 66, 5-methyl-N-(5-methyl-1,2-oxazol-3-yl)-4-oxo-4,5,6,7-tetrahydrofuro[3,2-c]pyridine-3-carboxamide] had a pIC50 of 5.29. Molecule `CCOc1nc(N2CCN(C(C)=O)CC2)ccc1NC(=O)c1coc2c1C(=O)NC1(C2)CN(C(C)=O)C1` [Example 113, 1-acetyl-N-[6-(4-acetylpiperazin-1-yl)-2-ethoxypyridin-3-yl]-4′-oxo-4′,7′-dihydro-5′H-spiro[azetidine-3,6′-furo[3,2-c]pyridine]-3′-carboxamide] gave a negative-log IC50 (pIC50) of 7.18.

`CCOc1nc(CCO)ccc1NC(=O)c1coc2c1C(=O)NCC2` [Example 109, N-[2-ethoxy-6-(2-hydroxyethyl)pyridin-3-yl]-4-oxo-4,5,6,7-tetrahydrofuro[3,2-c]pyridine-3-carboxamide]: the pIC50 is 6.65. The same measure, in the same setting: the same measure for `O=C(Nc1ccc(N2CCOCC2)cc1)c1coc2c1C(=O)NCC2` [Example 3, N-[4-(morpholin-4-yl)phenyl]-4-oxo-4,5,6,7-tetrahydrofuro[3,2-c]pyridine-3-carboxamide]: 6.76; for `CCOc1ccc(NC(=O)c2coc3c2C(=O)NCC3)cn1` [Example 44, N-(6-ethoxypyridin-3-yl)-4-oxo-4,5,6,7-tetrahydrofuro[3,2-c]pyridine-3-carboxamide]: 5.35; for `CN1CCN(CCn2cc3cc(NC(=O)c4coc5c4C(=O)NCC5)ccc3n2)CC1` [Example 52, N-{2-[2-(4-methylpiperazin-1-yl)ethyl]-2H-indazol-5-yl}-4-oxo-4,5,6,7-tetrahydrofuro[3,2-c]pyridine-3-carboxamide]: 7.74.

Turning to `COc1ccc(NC(=O)c2coc3c2C(=O)N(C)CC3)c(OC)n1` [Example 65, N-(2,6-dimethoxypyridin-3-yl)-5-methyl-4-oxo-4,5,6,7-tetrahydrofuro[3,2-c]pyridine-3-carboxamide], the pIC50 was 6.84. `O=C(Nc1ccc2cn[nH]c2c1)c1coc2c1C(=O)NCC2` [Example 34, N-(1H-indazol-6-yl)-4-oxo-4,5,6,7-tetrahydrofuro[3,2-c]pyridine-3-carboxamide] showed a pIC50 of 6.04. Still for that read-out and setting: the same measure for `CCOc1nc(N2CCN(C(=NC#N)NC)CC2)ccc1NC(=O)c1coc2c1C(=O)NCC2` [Example 93, N-{6-[4-(N′-cyano-N-methylcarbamimidoyl)piperazin-1-yl]-2-ethoxypyridin-3-yl}-4-oxo-4,5,6,7-tetrahydrofuro[3,2-c]pyridine-3-carboxamide]: 7.79; for `CCOc1nc(N2CCNCC2)ccc1NC(=O)c1coc2c1C(=O)NC(C)(C)C2` [Example 127, N-[2-ethoxy-6-(piperazin-1-yl)pyridin-3-yl]-6,6-dimethyl-4-oxo-4,5,6,7-tetrahydrofuro[3,2-c]pyridine-3-carboxamide]: 7.88. Still for that read-out and setting: as for `COCCOc1nc(N2CCN(C(C)=O)CC2)ccc1NC(=O)c1coc2c1C(=O)N(CCO)CC2` [Example 87, N-[6-(4-acetylpiperazin-1-yl)-2-(2-methoxyethoxyl)pyridin-3-yl]-5-(2-hydroxyethyl)-4-oxo-4,5,6,7-tetrahydrofuro[3,2-c]pyridine-3-carboxamide], the figure is 6.65; as for `CCOc1nc(N2CCN(C(C)=O)CC2)ccc1NC(=O)c1coc2c1C(=O)N(CC(C)(C)O)CC2` [Example 104, N-[6-(4-acetylpiperazin-1-yl)-2-ethoxypyridin-3-yl]-5-(2-hydroxy-2-methylpropyl)-4-oxo-4,5,6,7-tetrahydrofuro[3,2-c]pyridine-3-carboxamide], 8.22.

For `CN1CCc2occ(C(=O)Nc3ccc4c(cnn4C)c3)c2C1=O` [Example 24, 5-methyl-N-(1-methyl-1H-indazol-5-yl)-4-oxo-4,5,6,7-tetrahydrofuro[3,2-c]pyridine-3-carboxamide], the negative-log IC50 (pIC50) is 6.72. `CS(=O)(=O)NCCn1ncc2cc(NC(=O)c3coc4c3C(=O)NCC4)ccc21` [Example 58, N-(1-{2-[(methylsulfonyl)amino]ethyl}-1H-indazol-5-yl)-4-oxo-4,5,6,7-tetrahydrofuro[3,2-c]pyridine-3-carboxamide] gave a pIC50 of 6.98. Consider `CCN(CC)c1ccc(NC(=O)c2coc3c2C(=O)NCC3)cc1` [Example 49, N-[4-(diethylamino)phenyl]-4-oxo-4,5,6,7-tetrahydrofuro[3,2-c]pyridine-3-carboxamide], for which the pIC50 was 6.20. On to `COc1nc(N2CCN(C(C)=O)CC2)ccc1NC(=O)c1coc2c1C(=O)CC1(CCOCC1)C2` [Example 110, N-[6-(4-acetylpiperazin-1-yl)-2-methoxypyridin-3-yl]-4-oxo-2′,3′,4,5′,6′,7-hexahydro-5H-spiro[1-benzofuran-6,4′-pyran]-3-carboxamide], for which the pIC50 was 7.41. Consider `CN1CCc2occ(C(=O)Nc3ccc(N4CCOCC4)cc3)c2C1=O` [Example 25, 5-methyl-N-[4-(morpholin-4-yl)phenyl]-4-oxo-4,5,6,7-tetrahydrofuro[3,2-c]pyridine-3-carboxamide], for which the pIC50 is 6.95. Consider `CC(=O)N1CCN(c2ccc(NC(=O)c3coc4c3C(=O)N(CCO)CC4)c(OCCO)n2)CC1` [Example 88, N-[6-(4-acetylpiperazin-1-yl)-2-(2-hydroxyethoxyl)pyridin-3-yl]-5-(2-hydroxyethyl)-4-oxo-4,5,6,7-tetrahydrofuro[3,2-c]pyridine-3-carboxamide], for which the pIC50 is 7.02. In turn, `CC(C)Oc1nc(N2CCN(C(=O)N3CCOCC3)C[C@H]2CO)ccc1NC(=O)c1coc2c1C(=O)NC(C)(C)C2` [Example 135, N-{6-[(2S)-2-(hydroxymethyl)-4-(morpholin-4-ylcarbonyl)piperazin-1-yl]-2-isopropoxypyridin-3-yl}-6,6-dimethyl-4-oxo-4,5,6,7-tetrahydrofuro[3,2-c]pyridine-3-carboxamide] had a pIC50 of 8.64.

For another experiment, the system named is MIA-induced osteoarthritis pain. The experiment can be described thus: Rat model of mono-iodoacetic acid (MIA) induced osteoarthritis pain, hind limb grip force. It is filed as in vivo. The settings on record: 30 mg/kg p.o., tested 30-60 minutes postdosing, mean percent effect. The procedure: Members of the TrkA inhibitors described above were tested and found effective in reducing osteoarthritis pain. The compounds tested were assessed in an in vivo model well known to those skilled in the art, the rat model of mono-iodoacetic acid induced osteoarthritis pain. A general review of various models of pain can be found in Joshi and Honore, Expert Opinion in Drug Discovery (2004) 1, pp. 323-334, and in the book ‘Drug Discovery and Evaluation, 2nd edition (H. Gerhard Vogel, editor; Springer-Verlag, New York, 2002; pp. 702-706). Pain behavior was assessed by measurement of hind limb grip force (GF) in adult osteoarthritic rats. Male Sprague Dawley rats, generally weighing 125-150 g, were injected in the unilateral knee join with a single intra-articular injection of sodium monoiodoacetate (MIA). Rats were tested at 21-28 days following MIA injection. A behavioral measure of activity-induced pain was carried out. Measurements of the peak hind limb grip force were conducted by recording the maximum compressive force (CFmax), in grams of force, exerted on a hind limb strain gauge setup, in a commercially available grip force measurement system (Columbus Instruments, Columbus, Ohio). During testing, each rat was gently restrained by grasping it around its rib cage and then allowed to grasp the wire mesh frame attached to the strain gauge. The experimenter then moved the animal in a rostral-to-caudal direction until the grip was broken. Each rat was sequentially tested twice at an approximately 2-3 minute interval to obtain a raw mean grip force (CFmax). This raw mean grip force data was in turn converted to a maximum hindlimb cumulative compressive force (CFmax), as the grams of force/kg of body weight, for each animal. For evaluating the compound effects, the hind limb grip force testing in the MIA-treated rats was conducted generally 30-60 minutes after dosing with the test compound. A group of age-matched naïve (not injected with MIA) animals was added as a comparator to the drug-dosed groups. The vehicle control response for each group of MIA-treated animals was defined as the 0% response (0% effect), whereas the naïve control group was defined as the normal response and as 100% effect. The % effect=(Treatment CFmax−Vehicle CFmax)[…]]×100). Higher % effect numbers indicate increased relief from the pain in the model, with 100% indicating a return to the level of response seen in normal (non-osteoarthritic) animals. All experiments evaluating drug effects in this model were conducted in a randomized blinded fashion. Male Sprague Dawley rats (generally 250-300 g body weight at the time of testing) obtained from Charles River Laboratories (Wilmington, Mass.) were used for all experiments, unless indicated otherwise. The animals were housed in Association for Assessment and Accreditation of Laboratory Animal Care (AAALAC) approved facilities at AbbVie in a temperature-regulated environment under a controlled 12-hour light-dark cycle, with lights on at 6:00 a.m. Food and water were available ad libitum at all times except during testing. All testing was done following procedures outlined in protocols approved by AbbVie Institutional Animal Care and Use Committee.
`COCCOc1nc(N2CCN(C(C)=O)CC2)ccc1NC(=O)c1coc2c1C(=O)NC(C)(C)C2` [Example 177, N-[6-(4-acetylpiperazin-1-yl)-2-(2-methoxyethoxyl)pyridin-3-yl]-6,6-dimethyl-4-oxo-4,5,6,7-tetrahydrofuro[3,2-c]pyridine-3-carboxamide]: the “% Effect (hind limb grip force, MIA model)” value (shortened to “% Effect”) was 68% ***.

As to `CCOc1nc(N2CCN(C(C)=O)CC2)ccc1NC(=O)c1coc2c1C(=O)N(CCO)CC2` [Example 9, N-[6-(4-acetylpiperazin-1-yl)-2-ethoxypyridin-3-yl]-5-(2-hydroxyethyl)-4-oxo-4,5,6,7-tetrahydrofuro[3,2-c]pyridine-3-carboxamide], the “% Effect” value came out at 69% **.

The same experiment, now with this note: 30 mg/kg p.o., tested 3 hours post dose, mean percent effect.
Turning to `CCOc1nc(N2CCN(C(C)=O)CC2)ccc1NC(=O)c1coc2c1C(=O)NC(C)(C)C2` [Example 128, N-[6-(4-acetylpiperazin-1-yl)-2-ethoxypyridin-3-yl]-6,6-dimethyl-4-oxo-4,5,6,7-tetrahydrofuro[3,2-c]pyridine-3-carboxamide], the “% Effect” value was 55% ***.

Still in this experiment, the particulars now being: 300 mg/kg p.o., tested 3 hours post dose, mean percent effect.
Turning to `Cn1cc2cc(NC(=O)c3coc4c3C(=O)CC(C)(C)C4)ccc2n1` [Example 147, 6,6-dimethyl-N-(2-methyl-2H-indazol-5-yl)-4-oxo-4,5,6,7-tetrahydro-1-benzofuran-3-carboxamide], the “% Effect” value is 69% ***.

Values taken from patent US9777020B2, “Furo-3-carboxamide derivatives and methods of use” (AbbVie Inc., priority 2014, dated 2017).
